Here are results for 19 molecules from patent US6827926B2, “Metallotetrapyrrolic photosensitizing agents for use in photodynamic therapy” (Miravant Pharmaceuticals, Inc., priority 2001, dated 2004).

The subject of data set [1] is normal uninjured rat carotid arteries (medial and adventitial cell populations). The data set is described as follows: In vivo rat carotid artery acellularity after PDT. Also on record: species or system Sprague Dawley rats. To be noted: for Max % rat Artery Accelularity: Table 3; for Max % Rat Artery Acceluarity: Table 5. In short, it runs like this:
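Metallated photosensitizers light-activated in normal uninjured rat left common carotid via balloon catheter introduced through femoral arteriotomy under isoflurane; excitation 575 nm (Ga, Zn, Al, Sn) or 532 nm (Pt). Arteries harvested 3 days post-treatment, H&E-stained; medial and adventitial cell density assessed by light microscopy.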

Data set [2] concerns V79 (Chinese Hamster Lung Fibroblasts) cells. The data set is described as follows: In vitro cytotoxicity assay (light EC50, Alamar blue). The class given is cell-based. The method in brief:
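V79 cells in phenol-free 5% FBS/DMEM exposed 24 h to photosensitizer at final 0.01–5.0 μM, six replicates, then washed and light-treated, with a dark plate as control. Survival by Alamar blue after 24 h dark incubation, read at 570/600 nm.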

Data set [3] has as its system normal skin of CD Hairless male rats. The class given is in vivo, rat. The text has this:
We tested metallo- and metal-free tetrapyrroles systemically (see following section) for normal skin response in relation to the pharmacodynamic distribution of the photosensitizers in CD hairless rats. The skin of CD hairless rats are poorly developed, often referred to as hyperkeratotic, with various sized cystic hair follicles containing concentric lamellar accumulations of keratinaceous material, which are often associated with enlarged sebaceous glands. It quickly became apparent that gallium tetrapyrroles induced a marked clearing of the hyperkeratotic lesions in the treatment areas on the hairless rats. In fact, this clearing could be induced without necrosis of the skin. No other metallotetrapyrrole type produced such effects. This observation led us to assess the metallotetrapyrrolic compounds for skin restructuring effects both topically and systemically and for their ability to reduce hair growth in the following animal models.
Photosensitizer normal skin response as well as skin healing response, was evaluated using CD Hairless male rats. Photosensitizers were administered in an liposomal egg yolk phospholipid formulation at 1, 1.5 and 2 μmol/kg body weight formulation per dose group as a single bolus intravenous injection given through a marginal tail vein using a 27 gauge needle and a 1 cc tuberculin syringe. Normal skin responses were evaluated by irradiating several spots on the skin of the rat with a 532 nm laser (150 mW/cm^2, 150J, 1 cm diameter) at 1, 6, 24, 48, and 96 hrs post injection. Normal skin responses were evaluated and documented. The time at which the last spot is observed at the concentration injected is reported in the far right hand column in Tables 3, 4, 5 and 6. Skin samples were taken for histological evaluation at days 1, 10, 20 and 22 post light treatment. Rats were housed under normal lighting and all study procedures involving the test article were conducted under light filtered through blue and green Roscolox light filters to prevent photoactivation or degradation of the drug.

Setting [4] is: drug dose 1 μMol, 50 J/cm^2, 3 days post treatment.
Where [5] appears, read: Table 3 porphyrins, 24 h drug incubation, 532 nm, 1.25 J/cm^2, read-out: In Vitro EC50 Light.
The mark [6] stands for this setting: Table 3, time of last skin spot observed post injection, 1 μmol, 532 nm laser.
[7] abbreviates: Table 5 plant derived gallium porphyrins, light, read-out: In Vitro EC(50).

pEC50: −log10 of the molar value. Where two headings read alike, the source gives them in different places.

In the case of `CCC1=C(C)C2=NC1=Cc1c(C)c(CC)c3[n]1[Sn]([Cl])([Cl])[n]1c(c(C)c(CCCC(=O)OC)c1=CC1=NC(=C3)C(C)=C1CCCC(=O)OC)=C2` [Example 45, Tin(IV) Dichloride 8,13-diethyl-3,7,12,17-tetramethylporphyrin-2,18-di(butanoic acid methyl ester)], the “Max % rat Artery Accelularity” value in data set [1] (setting [4]) is given as 20%. Moreover, the pEC50 in data set [2] (setting [5]) is 5.82. In addition, the “Normal skin Response (1 μmol)” value in data set [3] (setting [6]) worked out at 24 h.

`CCC1=C(C)C2=Cc3c(CC)c(C)c4[n]3[Ga-2]35([Cl])[n]6c(c(C)c(C(=O)OC)c6=CC6=[N+]3C(=C4)C(C)=C6CCC(=O)NC)=CC1=[N+]25` [M=Ga R1=CONHMe R2=Et R3=Et R4=CO2Me R5=H]: the “Max % Rat Artery Acceluarity” value in data set [1] (drug dose 1 μMol) is listed as 65%. For the same molecule, in data set [2] (setting [7]), the pEC50 was 6.38. This molecule also showed a Normal skin Response (1 μmol) in data set [3] (rat, in vivo) of 6 h.

Turning to `CCCCCCNC(=O)CCC1=C(C)C2=Cc3c(C)c(CC)c4[n]3[Ga-2]35([Cl])[n]6c(c(C)c(CCC(=O)NCCCCCC)c6=CC1=[N+]23)=CC1=[N+]5C(=C4)C(C)=C1CC` [M=Ga R1=Et R3=Me R4=Et R2=CONH(Hexyl)], in data set [1] (setting [4]), the “Max % rat Artery Accelularity” value was determined as 60%. Further, the pEC50 in data set [2] (setting [5]) is 6.40. Besides, the “Normal skin Response (1 μmol)” value in data set [3] (setting [6]) stood at 96 h. Further, the “normal skin responses, time post drug injection” value in data set [3] (rats, drug dose 1 μmol/Kg) was determined as 96 h.

For the molecule “Gallium Chloride 8,13-diethyl-3,7,12,17-tetramethylporphyrin-2,18-di(3′-hydroxypropyl) [Example 7]”, the “Max % rat Artery Accelularity” value in data set [1] (setting [4]) turned out to be 95%. The “reduction of smooth muscle cells in the media and myofibroblasts in the adventitial layers of rat arteries” value in data set [1] (text b238) is reported as “efficient at dramatically reducing the number of smooth muscle cells”. In addition, in data set [2] (setting [5]), the pEC50 was 6.26. Besides, the “Normal skin Response (1 μmol)” value in data set [3] (rat, in vivo) worked out at 48 h.

For the molecule `CCC1=C(C)C2=Cc3c(CC)c(C)c4[n]3[Ga-2]35([Cl])[n]6c(c(C)c(CCCC(=O)OCCF)c6=CC6=[N+]3C(=C4)C(C)=C6CCCC(=O)OCCF)=CC1=[N+]25` [M=Ga R1=Et R3=Me R4=Et R2=CH2CO2CH2CH2F], the “Max % rat Artery Accelularity” value in data set [1] (setting [4]) was determined as 75%. Further, in data set [2] (setting [5]), the pEC50 was 6.40. For the same molecule, the “Normal skin Response (1 μmol)” value in data set [3] (rat, in vivo) came to 24 h.

Take `CCC1=C(C)c2cc3[n-]c(cc4nc(cc5[n-]c(cc1n2)c(C)c5CC)C(C)=C4CCC(=O)[O-])c(CCC(=O)[O-])c3C.[Ga+3].[Na+].[Na+].[OH-]` [Example 109, Gallium Hydroxy Mesoporphyrin Disodium Salt]: the “acellularity following PDT of rat arteries at longer treatment times post injection” value in data set [1] (16, 24 hrs post injection) is “significant acellularity”. Also, in data set [1] (4 hrs post administration), the “accelularity in rat artery at a four hour treatment point” value is given as 10%. Further, the “Max % rat Artery Accelularity” value in data set [1] (drug dose 1 μMol, 4 hrs) is 10/4 hrs. %. Further, the “Max % rat Artery Accelularity” value in data set [1] (drug dose 1 μMol, 24 hrs) is on record as 100/24 hrs %. In addition, in data set [2] (setting [5]), the pEC50 is 5.62. Further, in data set [3] (rat, in vivo), the “Normal skin Response (1 μmol) in hrs” value is reported as “none” and the “normal skin response at the drug doses used” value is on record as “no observed normal skin response”.

For the molecule `CCOC(=O)CCCCC1=C(C)C2=Cc3c(CC)c(C)c4[n]3[Zn-2]35[n]6c(c(C)c(CCCCC(=O)OCC)c6=CC1=[N+]23)=CC1=[N+]5C(=C4)C(CC)=C1C` (stereo not drawn) [Example 55, Zinc 8,13-diethyl-3,7,12,17-tetramethylporphyrin-2,18-di(pentanoic acid ethyl ester)], the “Max % rat Artery Accelularity” value in data set [1] (setting [4]) was determined as 0%. Moreover, in data set [2] (setting [5]), the pEC50 is 5.40. The “Normal skin Response (1 μmol)” value in data set [3] (rat, in vivo) was determined as 24 h.

As to `C=CC1=C(C)c2cc3[n-]c(cc4nc(cc5[n-]c(cc1n2)c(C)c5CCC(=O)OC)C(CCC(=O)OC)=C4C)c(C)c3C=C.[Cl-].[Ga+3]` [Example 42, Gallium Chloride Protoporphyrin Dimethyl Ester], the “Max % rat Artery Accelularity” value in data set [1] (setting [4]) is given as 70%. In data set [2] (setting [5]), the pEC50 is 6.32. The “Normal skin Response (1 μmol)” value in data set [3] (setting [6]) is 6 h.

Take `CC1=Cc2cc3[n-]c(cc4nc(cc5[n-]c(cc1n2)cc5C)C(C)=C4CCC(=O)OCCF)c(CCC(=O)OCCF)c3C.[Cl-].[Ga+3]` [Example 37, Gallium Chloride Deuteroporphyrin di (2-fluoroethylester)]: the “Max % rat Artery Accelularity” value in data set [1] (setting [4]) is on record as 80%. In addition, in data set [2] (setting [5]), the pEC50 is 6.40. The “Normal skin Response (1 μmol)” value in data set [3] (setting [6]) was 48 h.

In the case of `CC1=Cc2cc3[n-]c(cc4nc(cc5[n-]c(cc1n2)c(C)c5CCC(=O)OCC(F)(F)F)C(CCC(=O)OCC(F)(F)F)=C4C)cc3C.[Cl-].[Ga+3]` [Example 38, Gallium Chloride Deuteroporphyrin di (2,2,2-trifluoroethylester)], the “Max % rat Artery Accelularity” value in data set [1] (setting [4]) is recorded as 80%. In addition, the pEC50 in data set [2] (setting [5]) was 6.40. In data set [3] (rat, in vivo), the “Normal skin Response (1 μmol)” value was found to be 24 h.

As for `C=CC1=C(C)C2=Cc3c(C=C)c(C)c4[n]3[Sn-2]35([Cl])([Cl])[n]6c(c(C)c(CCC(=O)OC)c6=CC6=[N+]3C(=C4)C(C)=C6CCC(=O)OC)=CC1=[N+]25` [M=Sn R1=V R3=Me R4=V R2=CO2Me], in data set [1] (setting [4]), the “Max % rat Artery Accelularity” value was determined as 10%. Besides, in data set [2] (setting [5]), the pEC50 was 5.85. Further, the “Normal skin Response (1 μmol)” value in data set [3] (setting [6]) came to 24 h.

As to `CCC1=C(C)c2cc3[n-]c(cc4nc(cc5[n-]c(cc1n2)c(C)c5CC)C(C)=C4CCC(=O)OCCCCl)c(CCC(=O)OCCCCl)c3C.[Cl-].[Ga+3]` [Example 35, Gallium Chloride Mesoporphyrin di (3-chloropropylester)], the “Max % rat Artery Accelularity” value in data set [1] (setting [4]) was 80%. In data set [2] (setting [5]), the pEC50 was 6.40. Further, in data set [3] (rat, in vivo), the “Normal skin Response (1 μmol)” value was found to be 96 h.

As to `CCC1=C(C)C2=[N+]3C1=Cc1c(C)c(CC)c4[n]1[In-2]31([Cl])[n]3c(c(C)c(CCC(=O)NC)c3=CC3=[N+]1C(=C4)C(C)=C3CCC(=O)NC)=C2` [Example 59, Indium Chloride Mesoporphyrin N-methylamide], the “Max % rat Artery Accelularity” value in data set [1] (setting [4]) was 60%. For the same molecule, the pEC50 in data set [2] (setting [5]) was 6.77. Moreover, the “Normal skin Response (1 μmol)” value in data set [3] (rat, in vivo) is 48 h.

As for `CCC1=C(C)C2=Cc3c(CC)c(C)c4[n]3[Ga-2]35([Cl])[n]6c(c(C)c(C(=O)NC)c6=CC6=[N+]3C(=C4)C(C)=C6CCC(=O)O)=CC1=[N+]25` [M=Ga R1=CO2H R2=Et R3=Et R4=CONHMe R5=H], the “Max % Rat Artery Acceluarity” value in data set [1] (drug dose 1 μMol) was 50%. In addition, the pEC50 in data set [2] (setting [7]) is 6.30. The molecule further registered a Normal skin Response (1 μmol) in data set [3] (rat, in vivo) of 6 h.

With `CC1=Cc2cc3[n-]c(cc4nc(cc5[n-]c(cc1n2)cc5C)C(C)=C4CCC(=O)OCCCCl)c(CCC(=O)OCCCCl)c3C.[Cl-].[Ga+3]` [Example 36, Gallium Chloride Deuteroporphyrin di (3-chloropropylester)], the “Max % rat Artery Accelularity” value in data set [1] (setting [4]) is listed as 80%. Moreover, in data set [2] (setting [5]), the pEC50 is 6.40. Moreover, the “Normal skin Response (1 μmol)” value in data set [3] (rat, in vivo) was determined as 96 h.

For the molecule “Gallium Chloride 8,13-diethyl-3,7,12,17-tetramethylporphyrin-2,18-di(3′-methoxypropyl) [Example 10]”, the “Max % rat Artery Accelularity” value in data set [1] (setting [4]) is 75%. Besides, in data set [2] (setting [5]), the pEC50 was 6.40. Also, the “Normal skin Response (1 μmol)” value in data set [3] (rat, in vivo) amounted to 48 h.

For `CCCOC(=O)CCC1=C(C)c2cc3[n-]c(cc4nc(cc5[n-]c(cc1n2)c(CCC(=O)OCCC)c5C)C=C4C)cc3C.[Cl-].[Ga+3]` [Example 122, Gallium Chloride Deuteroporphyrin Di-propylester], in data set [1] (setting [4]), the “Max % rat Artery Accelularity” value was 95%. Besides, the pEC50 in data set [2] (setting [5]) is 6.46. Besides, the “Normal skin Response (1 μmol)” value in data set [3] (rat, in vivo) came out at 6 h.

As to `CCC1=C(CC)C2=[N+]3C1=Nc1c(CC)c(CC)c4[n]1[Ga-2]31([Cl])[n]3c(c(C)c(CCC(=O)OC)c3=CC3=[N+]1C(=C4)C(C)=C3CCC(=O)OC)=C2` [Example 21, Gallium Chloride 7,8,12,13-tetraethyl-12,17-dimethyl-10-azaporphyrin-2,18-di(propionic acid methyl ester)], the “Max % Rat Artery Accelularity” value in data set [1] (Table 4, drug dose 1 μMol, 575 nm (Pt 532 nm)) is listed as 60%. Further, the pEC50 in data set [2] (Table 4 azaporphyrins, 575 nm (Pt azaporphyrins 532 nm), 1.25 J/cm^2, read-out: In Vitro EC(50)) is 6.40. In addition, the “Normal skin Response (1 μmol)” value in data set [3] (rat, in vivo) is 24 h.

For `CCCOC(=O)CCCCC1=C(C)C2=Cc3c(CC)c(C)c4[n]3[Ga-2]35([Cl])[n]6c(c(C)c(CCCCC(=O)OCCC)c6=CC1=[N+]23)=CC1=[N+]5C(=C4)C(CC)=C1C` [Example 56, Gallium Chloride 8,13-diethyl-3,7,12,17-tetramethylporphyrin-2,18-di(pentanoic acid propyl ester)], the “Max % rat Artery Accelularity” value in data set [1] (setting [4]) is recorded as 75%. The pEC50 in data set [2] (setting [5]) was 6.40. The “Normal skin Response (1 μmol)” value in data set [3] (rat, in vivo) is 24 h.
